PubChem BioAssay AID1259407 (Chemical Carcinogenesis Research Information System (CCRIS), 2018)
Calls of active or inactive are those of the source. No rule for the calls is given here.

Tested on: CCRIS mutagenicity, Ames/micronucleus/aberration tests
Experiment: CCRIS mutagenicity studies

O=C(O)CN(CC(=O)O)CC(=O)O
mutagenic call (End Point: IN VITRO CHROMOSOMAL ABERRATIONS, Test System: CHO CELLS, Metabolic Activation: NONE): inactive; negative | mutagenic call (End Point: IN VITRO CHROMOSOMAL ABERRATIONS, Test System: CHO CELLS, Metabolic Activation: RAT, LIVER, S-9, AROCLOR 1254): inactive; negative | mutagenic call (End Point: IN VITRO MICRONUCLEUS, Test System: CHINESE HAMSTER EMBRYONIC LUNG (CL-1) CELLS, Metabolic Activation: NONE): active; positive at higher doses | mutagenic call (End Point: In vitro micronucleus, Test System: CTLL-2 T mouse lymphocyte cells, Metabolic Activation: None): active; positive | mutagenic call (End Point: In vitro micronucleus, Test System: CTLL-2 T mouse lymphocyte cells, Metabolic Activation: Rat, Kidney, S9, Aroclor 1254 with NADP): inactive; negative | mutagenic call (End Point: In vitro micronucleus, Test System: CTLL-2 T mouse lymphocyte cells, Metabolic Activation: Rat, Kidney, S9, Aroclor 1254 with arachidonic acid instead of NADP): inactive; negative | mutagenic call (End Point: In vitro micronucleus, Test System: CTLL-2 T mouse lymphocyte cells, Metabolic Activation: Rat, Liver, S9, Aroclor 1254): inactive; negative | mutagenic call (End Point: In vitro micronucleus, Test System: CTLL-2 bcl2 mouse lymphocyte cells, Metabolic Activation: None): active; positive | mutagenic call (End Point: In vitro micronucleus, Test System: CTLL-2 bcl2 mouse lymphocyte cells, Metabolic Activation: Rat, Kidney, S9, Aroclor 1254 with NADP): inactive; negative | mutagenic call (End Point: In vitro micronucleus, Test System: CTLL-2 bcl2 mouse lymphocyte cells, Metabolic Activation: Rat, Kidney, S9, Aroclor 1254 with arachidonic acid instead of NADP): inactive; negative | mutagenic call (End Point: In vitro micronucleus, Test System: CTLL-2 bcl2 mouse lymphocyte cells, Metabolic Activation: Rat, Liver, S9, Aroclor 1254): inactive; negative | mutagenic call (End Point: In vitro micronucleus, Test System: L5178Y mouse lymphoma cells, Metabolic Activation: None): active; positive | mutagenic call (End Point: In vitro micronucleus, Test System: L5178Y mouse lymphoma cells, Metabolic Activation: Rat, Kidney, S9, Aroclor 1254 with NADP): inactive; negative | mutagenic call (End Point: In vitro micronucleus, Test System: L5178Y mouse lymphoma cells, Metabolic Activation: Rat, Kidney, S9, Aroclor 1254 with arachidonic acid instead of NADP): inactive; negative | mutagenic call (End Point: In vitro micronucleus, Test System: L5178Y mouse lymphoma cells, Metabolic Activation: Rat, Liver, S9, Aroclor 1254): inactive; negative | mutagenic call (Test System: AMES SALMONELLA TYPHIMURIUM, Strain/Indicator: TA97, Metabolic Activation: HAMSTER, LIVER, S-9, AROCLOR 1254 (10 OR 30%), Method: PREINCUBATION): inactive; negative | mutagenic call (Test System: AMES SALMONELLA TYPHIMURIUM, Strain/Indicator: TA97, Metabolic Activation: NONE, Method: PREINCUBATION): inactive; negative | mutagenic call (Test System: AMES SALMONELLA TYPHIMURIUM, Strain/Indicator: TA97, Metabolic Activation: NONE, Method: SUSPENSION/PLATE): inactive; negative | mutagenic call (Test System: AMES SALMONELLA TYPHIMURIUM, Strain/Indicator: TA97, Metabolic Activation: RAT, LIVER, S-9, AROCLOR 1254 (10 OR 30%), Method: PREINCUBATION): inactive; negative | mutagenic call (Test System: AMES SALMONELLA TYPHIMURIUM, Strain/Indicator: TA98, Metabolic Activation: HAMSTER, LIVER, S-9, AROCLOR 1254 (10 OR 30%), Method: PREINCUBATION): inactive; negative | mutagenic call (Test System: AMES SALMONELLA TYPHIMURIUM, Strain/Indicator: TA98, Metabolic Activation: HAMSTER, LIVER, S-9, AROCLOR 1254, Method: STANDARD PLATE): inactive; negative | mutagenic call (Test System: AMES SALMONELLA TYPHIMURIUM, Strain/Indicator: TA98, Metabolic Activation: HAMSTER, LIVER, S-9, Method: STANDARD PLATE): inactive; negative | mutagenic call (Test System: AMES SALMONELLA TYPHIMURIUM, Strain/Indicator: TA98, Metabolic Activation: MOUSE, LIVER, S-9, AROCLOR 1254, Method: STANDARD PLATE): inactive; negative | mutagenic call (Test System: AMES SALMONELLA TYPHIMURIUM, Strain/Indicator: TA98, Metabolic Activation: MOUSE, LIVER, S-9, Method: STANDARD PLATE): inactive; negative | mutagenic call (Test System: AMES SALMONELLA TYPHIMURIUM, Strain/Indicator: TA98, Metabolic Activation: NONE, Method: PREINCUBATION): inactive; negative | mutagenic call (Test System: AMES SALMONELLA TYPHIMURIUM, Strain/Indicator: TA98, Metabolic Activation: NONE, Method: STANDARD PLATE): inactive; negative | mutagenic call (Test System: AMES SALMONELLA TYPHIMURIUM, Strain/Indicator: TA98, Metabolic Activation: NONE, Method: SUSPENSION/PLATE): inactive; negative | mutagenic call (Test System: AMES SALMONELLA TYPHIMURIUM, Strain/Indicator: TA98, Metabolic Activation: RAT, LIVER, S-9, AROCLOR 1254 (10 OR 30%), Method: PREINCUBATION): inactive; negative | mutagenic call (Test System: AMES SALMONELLA TYPHIMURIUM, Strain/Indicator: TA98, Metabolic Activation: RAT, LIVER, S-9, AROCLOR 1254, Method: STANDARD PLATE): inactive; negative | mutagenic call (Test System: AMES SALMONELLA TYPHIMURIUM, Strain/Indicator: TA98, Metabolic Activation: RAT, LIVER, S-9, Method: STANDARD PLATE): inactive; negative | mutagenic call (Test System: AMES SALMONELLA TYPHIMURIUM, Strain/Indicator: TA100(1,8-DNP6), Metabolic Activation: NONE, Method: SUSPENSION/PLATE): inactive; negative | mutagenic call (Test System: AMES SALMONELLA TYPHIMURIUM, Strain/Indicator: TA100(NR), Metabolic Activation: NONE, Method: SUSPENSION/PLATE): inactive; negative | mutagenic call (Test System: AMES SALMONELLA TYPHIMURIUM, Strain/Indicator: TA100, Metabolic Activation: HAMSTER, LIVER, S-9, AROCLOR 1254 (10 OR 30%), Method: PREINCUBATION): inactive; negative | mutagenic call (Test System: AMES SALMONELLA TYPHIMURIUM, Strain/Indicator: TA100, Metabolic Activation: HAMSTER, LIVER, S-9, AROCLOR 1254, Method: STANDARD PLATE): inactive; negative | mutagenic call (Test System: AMES SALMONELLA TYPHIMURIUM, Strain/Indicator: TA100, Metabolic Activation: HAMSTER, LIVER, S-9, Method: STANDARD PLATE): inactive; negative | mutagenic call (Test System: AMES SALMONELLA TYPHIMURIUM, Strain/Indicator: TA100, Metabolic Activation: MOUSE, LIVER, S-9, AROCLOR 1254, Method: STANDARD PLATE): inactive; negative | mutagenic call (Test System: AMES SALMONELLA TYPHIMURIUM, Strain/Indicator: TA100, Metabolic Activation: MOUSE, LIVER, S-9, Method: STANDARD PLATE): inactive; negative | mutagenic call (Test System: AMES SALMONELLA TYPHIMURIUM, Strain/Indicator: TA100, Metabolic Activation: NONE, Method: PREINCUBATION): inactive; negative | mutagenic call (Test System: AMES SALMONELLA TYPHIMURIUM, Strain/Indicator: TA100, Metabolic Activation: NONE, Method: STANDARD PLATE): inactive; negative | mutagenic call (Test System: AMES SALMONELLA TYPHIMURIUM, Strain/Indicator: TA100, Metabolic Activation: NONE, Method: SUSPENSION/PLATE): inactive; negative | mutagenic call (Test System: AMES SALMONELLA TYPHIMURIUM, Strain/Indicator: TA100, Metabolic Activation: RAT, LIVER, S-9, AROCLOR 1254 (10 OR 30%), Method: PREINCUBATION): inactive; negative | mutagenic call (Test System: AMES SALMONELLA TYPHIMURIUM, Strain/Indicator: TA100, Metabolic Activation: RAT, LIVER, S-9, AROCLOR 1254, Method: STANDARD PLATE): inactive; negative | mutagenic call (Test System: AMES SALMONELLA TYPHIMURIUM, Strain/Indicator: TA100, Metabolic Activation: RAT, LIVER, S-9, Method: STANDARD PLATE): inactive; negative | mutagenic call (Test System: AMES SALMONELLA TYPHIMURIUM, Strain/Indicator: TA102, Metabolic Activation: NONE, Method: SUSPENSION/PLATE): inactive; negative | mutagenic call (Test System: AMES SALMONELLA TYPHIMURIUM, Strain/Indicator: TA1535, Metabolic Activation: HAMSTER, LIVER, S-9, AROCLOR 1254 (10 OR 30%), Method: PREINCUBATION): inactive; negative | mutagenic call (Test System: AMES SALMONELLA TYPHIMURIUM, Strain/Indicator: TA1535, Metabolic Activation: HAMSTER, LIVER, S-9, AROCLOR 1254, Method: STANDARD PLATE): inactive; negative | mutagenic call (Test System: AMES SALMONELLA TYPHIMURIUM, Strain/Indicator: TA1535, Metabolic Activation: HAMSTER, LIVER, S-9, Method: STANDARD PLATE): inactive; negative | mutagenic call (Test System: AMES SALMONELLA TYPHIMURIUM, Strain/Indicator: TA1535, Metabolic Activation: MOUSE, LIVER, S-9, AROCLOR 1254, Method: STANDARD PLATE): inactive; negative | mutagenic call (Test System: AMES SALMONELLA TYPHIMURIUM, Strain/Indicator: TA1535, Metabolic Activation: MOUSE, LIVER, S-9, Method: STANDARD PLATE): inactive; negative | mutagenic call (Test System: AMES SALMONELLA TYPHIMURIUM, Strain/Indicator: TA1535, Metabolic Activation: NONE, Method: PREINCUBATION): inactive; negative
